Assay results from patent US7414077B2, “Therapeutic intervention to mimic the effect of caloric restriction” (priority 1999, dated 2008).

Columns and labels:
5′ deiodinase [1] = test: effect of in vitro free fatty acids on 5′ deiodinase activity (thyroid hormone synthesis in vitro); type: biochemical; conditions: 1 mM free fatty acid; as a function of substrate concentration
Method: (§1) Reaction velocities were measured under control conditions (▴) and in the presence of 1 mM free fatty acids palmitic acid (●) and oleic acid (▪). Each point on the curve represents the mean of triplicate determinations. Lineweaver-Burk plots described lines characterized by r^2 from 0.988-0.999.

5′ deiodinase [2] = test: 5′ deiodinase activity as a function of substrate concentration (Lineweaver-Burk), control conditions; type: biochemical; conditions: in vitro, without free fatty acids, mean of triplicate determinations, Lineweaver-Burk plot, FIG. 2A
Method: as §1

Structure (SMILES) | effect on thyroid hormone synthesis in vitro (5′ deiodinase activity) (5′ deiodinase [1]) | Km (5′ deiodinase [2]) [µM]
CCCCCCCC/C=C\CCCCCCCC(=O)O [oleic acid] | inhibit thyroid hormone synthesis in vitro | –
CCCCCCCCCCCCCCCC(=O)O [palmitic acid] | inhibit thyroid hormone synthesis in vitro | –
N[C@@H](Cc1ccc(Oc2cc(I)c(O)c(I)c2)c(I)c1)C(=O)O [rT3] | – | 2.38
